Laboratory results: paper PMC5841303, “In silico screening for human norovirus antivirals reveals a novel non-nucleoside inhibitor of the viral polymerase” (Scientific Reports, 2018)

Assays:
norovirus RdRp = assay: Counter-screen gel-shift RdRp assay (primed elongation of PE44-NoV template); assay type: biochemical, human norovirus; conditions: fixed concentration of 100 µM
Protocol: In this assay, a 32 nucleotide RNA template (PE44-NoV) is extended to 44 nucleotides in the presence of an active RdRp[16]. […] Inhibition of primed elongation of the PE44-NoV template was examined at a fixed concentration of 100 µM (Fig. 4D). In the absence of inhibition (0.5% DMSO vehicle only) the RNA template was extended to 44 nucleotides (Fig. 4D), evidenced by an upward gel shift and the appearance of the second, higher band.
Fluorescent RdRp activity assays were carried out as previously described[14],[62]. Briefly, RdRp activity was quantified by monitoring the formation of double-stranded RNA (dsRNA) from a single stranded homopolymeric template, poly(C) (Sigma Aldrich, St Louis, MO, USA), using the fluorescent dye PicoGreen (Life Technologies, Carlsbad, CA, USA). RdRp assays were performed in 384-well plates, and each reaction mixture contained 400 ng enzyme, 45 µM GTP, 10 ng/µL poly(C) RNA, 2.5 mM MnCl2, 5 mM dithiothreitol, (DTT), 0.01% bovine serum albumin (BSA), and 0.005% Tween 20 in 20 mM Tris-HCl, pH 7.5, with a final reaction volume of 25 µL. The previous published norovirus NNI NIC02 was used as a positive control. RdRps were incubated for 10 mins at 30 °C in the presence of the test compounds or the compound vehicle DMSO (0.5% vol/vol) before addition into the reaction mixture, which was then allowed to run 15 min at 30 °C then terminated with 10 mM EDTA, followed by PicoGreen staining and dsRNA quantitation. GraphPad Prism V6.05 (La Jolla, CA, USA) was used to plot the IC50 values. In cases where fluorescent enhancement was recorded for a compound instead of inhibition, a secondary gel-based polymerase activity assay was used as a counter-screen as described below, to exclude the possibility of RdRp activity enhancement (Supplementary Fig. S1). Primed elongation activity was examined in a gel-based assay as previously described[16],[63] using the RNA template (PE44-NoV, Fig. 4D). Gels were imaged using BioRad (Hercules, CA, U.SA) Geldoc Universal Hood II, running BioRad Image Lab software, V4.1, build 16. Antagonism was calculated using Compusyn software V1.0[59]. 54 and PPNDS (4:1 ratio) were tested alone and together against norovirus Sydney 2012 RdRp.

RHDV RdRp = assay: Fluorescent RdRp activity assay, RHDV RdRp; assay type: biochemical, rabbit haemorrhagic disease virus; conditions: fixed concentration of 100 µM
Description: The antiviral activity of the four compounds (11, 13, 42a and 54) were examined for inhibition of RNA polymerases from other viruses spanning three genera of the Caliciviridae family, including Norovirus (human norovirus and MNV), Lagovirus (rabbit haemorrhagic disease virus [RHDV]) and Sapovirus (human sapovirus). […] The protein sequence of the examined calicivirus polymerases has an identity range between 30.2–61.4%, and therefore the broad-spectrum activity of these compounds could be attributed to a common, highly-conserved binding pocket across the RdRps, as has been previously reported with broad-spectrum activity of other site-B binding NNIs[16]. […]
(§1) Fluorescent RdRp activity assays were carried out as previously described[14],[62]. Briefly, RdRp activity was quantified by monitoring the formation of double-stranded RNA (dsRNA) from a single stranded homopolymeric template, poly(C) (Sigma Aldrich, St Louis, MO, USA), using the fluorescent dye PicoGreen (Life Technologies, Carlsbad, CA, USA). […] RdRps were incubated for 10 mins at 30 °C in the presence of the test compounds or the compound vehicle DMSO (0.5% vol/vol) before addition into the reaction mixture, which was then allowed to run 15 min at 30 °C then terminated with 10 mM EDTA, followed by PicoGreen staining and dsRNA quantitation. […] Antagonism was calculated using Compusyn software V1.0[59]. […]

MNV = MNV plaque reduction assay in cell culture; assay type: cell-based, murine norovirus
Protocol: (§2) As mentioned above, the only robust cellular assay available for the evaluation of potential norovirus inhibitors is the closely related MNV assay. […] Consequently, 54 was further assessed to determine the IC50 value against MNV RdRp activity using an in vitro fluorescent assay. […] 54 was then assessed for cytotoxicity against RAW264.7 mouse macrophage cells using a cell viability assay. […] Using the plaque reduction assay, the inhibitory effects of 54 (0.5–50 µM) were examined against MNV plaque formation in cell culture. […] Compound solubility and its cell-membrane permeability properties could be further improved with structure-activity relationship enhancement of the 54 scaffold to facilitate cellular uptake, and therefore to increase antiviral efficacy. Work on this aspect is ongoing, and it will be reported in due course.
(§3) MNV-1 (CW1) culture assays were performed as previously described. Replication was examined using plaque assays[58],[64],[65]. Cytotoxicity was examined using a CellTitre Blue (Promega, Madison, WI, USA) viability assay as described previously.

[1] = CellTitre Blue cell viability (cytotoxicity) assay; assay type: cell-based; conditions: mouse, RAW264.7 mouse macrophage cells, 0.5–100 µM, read-out: CC50 (half maximal cytotoxic concentration)
Protocol: as §2, §3

Q414A norovirus RdRp = target: T1, Q414A norovirus RdRp (Norovirus GII.4 (Norwalk virus, human norovirus), UniProt K4L8Z7, Q1603A); assay: Fluorescent RdRp assay, Q414A mutant RdRp; assay type: biochemical; conditions: 0.1–100 µM
T1 sequence (K4L8Z7 1190-1699 Q1603A): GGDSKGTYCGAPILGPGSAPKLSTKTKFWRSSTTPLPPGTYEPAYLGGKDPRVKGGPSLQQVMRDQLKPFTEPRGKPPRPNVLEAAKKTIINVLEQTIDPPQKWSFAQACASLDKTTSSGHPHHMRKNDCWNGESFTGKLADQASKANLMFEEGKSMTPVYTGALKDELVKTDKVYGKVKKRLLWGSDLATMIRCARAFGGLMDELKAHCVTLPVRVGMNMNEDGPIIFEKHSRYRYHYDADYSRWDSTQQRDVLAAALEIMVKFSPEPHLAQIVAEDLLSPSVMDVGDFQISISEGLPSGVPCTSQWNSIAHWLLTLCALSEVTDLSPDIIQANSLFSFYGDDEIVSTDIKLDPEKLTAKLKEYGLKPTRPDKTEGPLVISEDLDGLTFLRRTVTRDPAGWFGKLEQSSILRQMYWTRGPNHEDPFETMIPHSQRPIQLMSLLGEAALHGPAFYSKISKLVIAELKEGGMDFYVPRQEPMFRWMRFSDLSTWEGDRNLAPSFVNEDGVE
Description: Given the evidence of 54 being a site-B binding NNI, residues Q414 and R419 were mutated to alanine. These residues were previously shown by our research group and others to be critical for human norovirus RdRp site-B binding NNIs, and can create resistance to the drug through their mutagenesis[16],[17],[39]. After the mutant RdRps’ transcriptional activity was confirmed in a fluorescent RdRp assay (Q414A: 54%, R419A: 34% of wild-type activity, respectively), dose-response curves for 54 (0.1–100 µM) were produced to compare the IC50 values between the wild-type RdRp and the two mutant RdRps, Q414A and R419A (Fig. 13B). […]
as §1

SMILES: O=C1NN(c2ccccc2)C(=O)/C1=C/c1ccc(-c2ccc(S(=O)(=O)Nc3ccccc3)cc2)o1 [Compound 54]
- inhibition of primed elongation activity (gel-shift) (norovirus RdRp): near complete abolishment of norovirus RdRp activity
- inhibition of RHDV RdRp activity (RHDV RdRp): 99.0%
- cytotoxicity seen in plaque assay (MNV; 50 µM, RAW264.7 cells): RAW264.7 cells thinning
- EC50 (MNV; 0.5–50 µM, read-out: EC50 against MNV in cell culture (plaque reduction)): > 50 µM
- effect on plaque numbers (MNV; up to 25 µM): no appreciable effect
- CC50 [1]: 62.8 µM
- IC50 (Q414A norovirus RdRp): 7.8 µM
